Earlier results on two compounds are cited in US20020132013A1, “Liquid cautery catheter” (priority 2001, published 2002).

Data set [1] relates to uterocomual tubal junction.
Data set [2] relates to hemorrhagic radiation induced proctitis. The note with it: topical application.

For `C=C(C#N)C(=O)OC` [Methyl 2-cyanoacrylate], the complications reported result in data set [1] (35 healthy, parous women) is recorded as “No complications were reported”. In addition, in data set [1] (35 healthy, parous women, hysterosalpingography 4 months after the procedure), the “bilateral tubal occlusion, share of study participants” value is given as 88.2%. In addition, the “pregnancies reported in participants who demonstrated tubal occlusion” value in data set [1] (participants with tubal occlusion) is recorded as “no pregnancies reported”.

On to `C=O` [formalin], for which the “efficacy in control of bleeding” value in data set [2] is “demonstrated the efficacy”.
